Laboratory results reported in EP2711007A1, “4-Aminopyrazolo[3,4-d]pyrimidine for use in treating or preventing primary and metastatic breast and prostate cancer” (Institut Univ. de Ciència i Tecnologia, S.A., priority 2012, dated 2014).

Key:
[1] = test system: PNT1A immortalized normal prostate cell line; assay: Tetrazolium dye proliferation (WST-1) assay, PNT1A; assay type: cell-based; details: Homo sapiens, 120 h, 5 days incubation, concentration not given (primary screen 1 microM), mean±SD, read-out: proliferation inhibitory effect compared with 0.1 % DMSO vehicle control group
Procedure: (§1) Determination of the ability of compound of formula (I) and combinations between compound of formula (I) and certain therapeutic compounds described herein to inhibit the proliferation of target cells was assayed in vitro against breast and prostate tumour cells. The antiproliferative activity was measured through the commercial WST-1 proliferation measurement reagent in a two-step screening procedure: […] MCF-7 and LNCaP cells were purchased from ATCC. PNT1A cells were purchased from ECACC. The cells were grown in a subconfluent condition to maintain a logarithmic growth phase. The cells were dislodged for passage using trypsin-EDTA. The proliferation of the cell lines was evaluated by using the commercial WST-1 proliferation measurement reagent. Cells from exponentially growing cultures were plated on the 96 well plates at the appropriate seeding density in the optimal medium to give logarithmic growth over the course of the assay. The plates with MCF-7 and PNT1A cells were incubated 24h at 37°C in a humidified CO2 atmosphere to allow for recovery from trypsinization before adding of test and control compounds. […] Control compounds Ara-C and Gemcitabine stock solutions were prepared in sterile water. Each test and control compound was diluted twice the final concentration in appropriate media. Half of the final well volume of each dilution was added in six parallels to plates containing cells. […] The plates were returned to 37°C in a humidified CO2 atmosphere and incubated for 5 days. […] Following incubation the absorbance at a wavelength of 450nm was measured from each well using a multilabel counter. The absorbance at wavelength 450nm correlates linearly to number of viable cells in the well. The means and standard deviations for parallel samples were calculated and plotted as a graph.

[2] = test system: MCF-7 breast cancer cell line; assay: Tetrazolium dye proliferation (WST-1) assay, MCF-7; assay type: cell-based; design: proliferation inhibitory effect compared with Gemcitabine: concentration or dose not given beside the values; details: 5 days incubation; for inhibition at 1 µM: Homo sapiens, MCF7, 120 h, concentration not given (primary screen 1 microM), mean±SD, read-out: proliferation inhibitory effect compared with 0.1 % DMSO vehicle control group; for proliferation inhibitory effect compared with Gemcitabine: Gemcitabine set to 0, negative = less inhibition than Gemcitabine
Procedure: as §1

[3] = test system: LNCaP prostate cancer cell line; assay: Tetrazolium dye proliferation (WST-1) assay, LNCaP; assay type: cell-based; details: 5 days incubation; for inhibition at 1 µM: Homo sapiens, 120 h, concentration not given (primary screen 1 microM), mean±SD, read-out: proliferation inhibitory effect compared with 0.1 % DMSO vehicle control group; for proliferation inhibitory effect compared with Gemcitabine: Gemcitabine set to 0, negative = less inhibition than Gemcitabine
Procedure: as §1

acute leukaemia = details: up to 9 patients treated; cited from earlier work
[4] = test system: RC and S790 mouse mammary carcinomas; details: considered non active; cited from earlier work
pancreatic cancer cells = assay: Effect on other cancer cells (pancreatic); assay type: cell-based; details: other type of cancer cells such as pancreatic cancer cells

Compound	inhibition at 1 µM [1]	inhibition at 1 µM [2]	inhibition at 1 µM [3]	proliferation inhibitory effect compared with Gemcitabine [2]	antitumour activity in man (acute leukaemia)	tumor growth inhibition [4]	proliferation inhibitory effect compared with Gemcitabine [3]	effect on pancreatic cancer cells (pancreatic cancer cells)
Nc1ccn([C@@H]2O[C@H](CO)[C@@H](O)[C@@H]2O)c(=O)n1 [Ara-C]	66.5 ± 1.8%	78.3 ± 3.9%	50.1 ± 3.4%	–	–	–	–	–
5-Bromo-2'-deoxyuridine (Broxuridine) [Compound E]	–	–	–	-221.1±50.3%	–	–	–	–
Nc1ncnc2[nH]ncc12 [Compound I, 4-Aminopyrazolo[3,4-d]pyrimidine]	18 ± 2.1%	98.6 ± 0.5%	97.9 ± 0.5%	93.8±2.4%	did not demonstrate any antitumour activity in man	10%	93.1±0.7%	no effect was detected
Nc1ccn([C@@H]2O[C@H](CO)[C@@H](O)C2(F)F)c(=O)n1 [Gemcitabine, 2',2'-difluorodeoxycytidine]	98.8 ± 0.3%	80 ± 3.7%	71.2 ± 0.8%	0%	–	–	0%	–
O=c1[nH]c(=O)n([C@H]2C[C@H](O)[C@@H](CO)O2)cc1F [Floxuridine]	88.3 ± 0.6%	66.2 ± 8%	58.3 ± 1%	-50.4±35.6%	–	–	-34.7±3.1%	–
5-Iodo-2'-deoxyuridine (Idoxuridine) [Compound F]	–	–	–	-174.8±33.9%	–	–	–	–
